Patent publication US12077503B2, “Substituted cyclic amides and their use as herbicides” (FMC CORPORATION, priority 2015, dated 2024)

Tests used:
Format in all cases: in vivo
[1] = tested on: Kochia (Kochia scoparia); experiment: Test A preemergence
Summary of the method: (§1)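 In a loam soil and sand blend, planted seeds got a preemergence directed soil spray, and young plants at the one- to two-leaf stage, 2–10 cm high, got a postemergence application; ~10 d greenhouse hold; injury rated visually, 0 = none, 100 = complete control.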

[2] = tested on: barnyardgrass (Echinochloa crus-galli); experiment: Test A preemergence
Summary of the method: as §1

[3] = tested on: giant foxtail (Setaria faberii); experiment: Test A preemergence
Summary of the method: as §1

[4] = tested on: pigweed (Amaranthus retroflexus); experiment: Test A preemergence
[5] = tested on: ragweed (common ragweed, Ambrosia elatior); experiment: Test A preemergence
Summary of the method: as §1

[6] = tested on: ryegrass, Italian (Italian ryegrass, Lolium multiflorum); experiment: Test A preemergence
Summary of the method: as §1

[7] = tested on: Galium (catchweed bedstraw, Galium aparine); experiment: Test A postemergence; settings: postemergence, 0 to 100 scale (0 no effect, 100 complete control)
Summary of the method: as §1

[8] = tested on: Kochia (Kochia scoparia); experiment: Test A postemergence; settings: postemergence, 0 to 100 scale (0 no effect, 100 complete control)
Summary of the method: as §1

[9] = tested on: barnyardgrass (Echinochloa crus-galli); experiment: Test A postemergence; settings: postemergence, 0 to 100 scale (0 no effect, 100 complete control)
Summary of the method: as §1

[10] = tested on: blackgrass (Alopecurus myosuroides); experiment: Test A postemergence; settings: postemergence, 0 to 100 scale (0 no effect, 100 complete control)
Summary of the method: as §1

[11] = tested on: corn (Zea mays); experiment: Test A postemergence; settings: postemergence, 0 to 100 scale (0 no effect, 100 complete control)
Summary of the method: as §1

[12] = tested on: giant foxtail (Setaria faberii); experiment: Test A postemergence; settings: postemergence, 0 to 100 scale (0 no effect, 100 complete control)
Summary of the method: as §1

[13] = tested on: pigweed (Amaranthus retroflexus); experiment: Test A postemergence; settings: postemergence, 0 to 100 scale (0 no effect, 100 complete control)
Summary of the method: as §1

[14] = tested on: ragweed (common ragweed, Ambrosia elatior); experiment: Test A postemergence; settings: postemergence, 0 to 100 scale (0 no effect, 100 complete control)
Summary of the method: as §1

[15] = tested on: ryegrass, Italian (Italian ryegrass, Lolium multiflorum); experiment: Test A postemergence; settings: postemergence, 0 to 100 scale (0 no effect, 100 complete control)
Summary of the method: as §1

[16] = tested on: wheat (Triticum aestivum); experiment: Test A postemergence; settings: postemergence, 0 to 100 scale (0 no effect, 100 complete control)
Summary of the method: as §1

[17] = tested on: barnyardgrass (Echinochloa crus-galli); experiment: Test B flooded paddy test; settings: Flood, 250 g ai/ha; 0 to 100 scale where 0 is no effect and 100 is complete control; 13 to 15 d
Summary of the method: (§2)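 Plants at 2-leaf stage flooded to 3 cm above soil, with compounds applied directly to paddy water and that depth maintained. Plants kept in greenhouse 13–15 d. Visual rating versus controls on a 0 (no effect) to 100 (complete control) scale.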

[18] = tested on: ducksalad (Heteranthera limosa); experiment: Test B flooded paddy test; settings: Flood, 250 g ai/ha; 0 to 100 scale where 0 is no effect and 100 is complete control; 13 to 15 d
Summary of the method: as §2

[19] = tested on: rice (Oryra sativa); experiment: Test B flooded paddy test; settings: Flood, 250 g ai/ha; 0 to 100 scale where 0 is no effect and 100 is complete control; 13 to 15 d
Summary of the method: as §2

[20] = tested on: sedge, umbrella (small-flower umbrella sedge, Cyperus difformis); experiment: Test B flooded paddy test; settings: Flood, 250 g ai/ha; 0 to 100 scale where 0 is no effect and 100 is complete control; 13 to 15 d
Summary of the method: as §2

[21] = tested on: barnyardgrass (Echinochloa crus-galli); experiment: Test C flooded paddy test; settings: Flood; for Plant response rating, Barnyardgrass: 31 g ai/ha, scale 0 to 100 (0 no effect, 100 complete control), 13 to 15 d; for Plant response rating (scale of 0 to 100), Barnyardgrass: 0 is no effect, 100 is complete control
Summary of the method: (§3)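 Test compounds were dosed straight into the flood water of pots holding 2-leaf-stage plants, with water kept 3 cm above the soil. Greenhouse plants were scored visually against controls after 13 to 15 d, from 0 (no effect) to 100 (complete control).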

[22] = tested on: ducksalad (Heteranthera limosa); experiment: Test C flooded paddy test; settings: Flood; for Plant response rating, Ducksalad: 31 g ai/ha, scale 0 to 100 (0 no effect, 100 complete control), 13 to 15 d; for Plant response rating (scale of 0 to 100), Ducksalad: 0 is no effect, 100 is complete control
Summary of the method: as §3

[23] = tested on: rice (Oryza sativa); experiment: Test C flooded paddy test; settings: Flood; for Plant response rating, Rice: 31 g ai/ha, scale 0 to 100 (0 no effect, 100 complete control), 13 to 15 d; for Plant response rating (scale of 0 to 100), Rice: 0 is no effect, 100 is complete control
Summary of the method: as §3

[24] = tested on: sedge, umbrella (small-flower umbrella sedge, Cyperus difformis); experiment: Test C flooded paddy test; settings: Flood; for Plant response rating, Sedge, Umbrella: 31 g ai/ha, scale 0 to 100 (0 no effect, 100 complete control), 13 to 15 d; for Plant response rating (scale of 0 to 100), Sedge, Umbrella: 0 is no effect, 100 is complete control
Summary of the method: as §3

[25] = 125 g ai/ha, Preemergence, visual injury after approximately 10 d, 0 to 100 scale where 0 is no effect and 100 is complete control
[26] = 500 g ai/ha, preemergence, 0 to 100 scale, 0 = no effect, 100 = complete control
[27] = 125 g ai/ha, visual rating after approx. 10 d
[28] = 500 g ai/ha, visual injury, approx. 10 d

## Cc1ccc(C2CN(C)C(=O)C2C(=O)Nc2ccccc2F)cc1 (centres unmarked) [Compound 661]
[1]; [25]
  Plant response rating, Kochia: 50
[1]; [26]
  Plant response rating, Kochia: 70
[2]; [25]
  Plant response rating, Barnyardgrass: 90
[2]; [26]
  Plant response rating, Barnyardgrass: 90
[3]; [25]
  Plant response rating, Foxtail, Giant: 90
[3]; [26]
  Plant response rating, Foxtail, Giant: 100
[4]; [25]
  Plant response rating, Pigweed: 0
[4]; [26]
  Plant response rating, Pigweed: 40
[5]; [25]
  Plant response rating, Ragweed: 70
[5]; [26]
  Plant response rating, Ragweed: 80
[6]; [25]
  Plant response rating, Ryegrass, Italian: 30
[6]; [26]
  Plant response rating, Ryegrass, Italian: 50
[7]; [27]
  Plant response rating, Galium: 50
[7]; [28]
  Plant response rating, Galium: 60
[8]; [27]
  Plant response rating, Kochia: 60
[8]; [28]
  Plant response rating, Kochia: 70
[9]; [27]
  Plant response rating, Barnyardgrass: 90
[9]; [28]
  Plant response rating, Barnyardgrass: 90
[10]; [27]
  Plant response rating, Blackgrass: 50
[10]; [28]
  Plant response rating, Blackgrass: 70
[11]; [27]
  Plant response rating, Corn: 50
[11]; [28]
  Plant response rating, Corn: 90
[12]; [27]
  Plant response rating, Foxtail, Giant: 90
[12]; [28]
  Plant response rating, Foxtail, Giant: 90
[13]; [27]
  Plant response rating, Pigweed: 0
[13]; [28]
  Plant response rating, Pigweed: 0
[14]; [27]
  Plant response rating, Ragweed: 10
[14]; [28]
  Plant response rating, Ragweed: 50
[15]; [27]
  Plant response rating, Ryegrass, Italian: 30
[15]; [28]
  Plant response rating, Ryegrass, Italian: 80
[16]; [27]
  Plant response rating, Wheat: 30
[16]; [28]
  Plant response rating, Wheat: 80
[17]
  Plant response rating, Barnyardgrass: 80
[18]
  Plant response rating, Ducksalad: 100
[19]
  Plant response rating, Rice: 10
[20]
  Plant response rating, Sedge, Umbrella: 0
[21]
  Plant response rating, Barnyardgrass: 25
[21]; 62 g ai/ha
  Plant response rating (scale of 0 to 100), Barnyardgrass: 70
[21]; 125 g ai/ha
  Plant response rating (scale of 0 to 100), Barnyardgrass: 80
[21]; 250 g ai/ha
  Plant response rating (scale of 0 to 100), Barnyardgrass: 85
[22]
  Plant response rating, Ducksalad: 65
[22]; 62 g ai/ha
  Plant response rating (scale of 0 to 100), Ducksalad: 75
[22]; 125 g ai/ha
  Plant response rating (scale of 0 to 100), Ducksalad: 95
[22]; 250 g ai/ha
  Plant response rating (scale of 0 to 100), Ducksalad: 100
[23]
  Plant response rating, Rice: 0
[23]; 62 g ai/ha
  Plant response rating (scale of 0 to 100), Rice: 0
[23]; 125 g ai/ha
  Plant response rating (scale of 0 to 100), Rice: 0
[23]; 250 g ai/ha
  Plant response rating (scale of 0 to 100), Rice: 10
[24]
  Plant response rating, Sedge, Umbrella: 0
[24]; 62 g ai/ha
  Plant response rating (scale of 0 to 100), Sedge, Umbrella: 0
[24]; 125 g ai/ha
  Plant response rating (scale of 0 to 100), Sedge, Umbrella: 0
[24]; 250 g ai/ha
  Plant response rating (scale of 0 to 100), Sedge, Umbrella: 0

## Cc1ccc(C2CN(C)C(=O)C2C(=O)Nc2ccc(F)cc2F)cc1 (centres unmarked) [Compound 664]
[1]; [25]
  Plant response rating, Kochia: 70
[1]; [26]
  Plant response rating, Kochia: 70
[2]; [25]
  Plant response rating, Barnyardgrass: 90
[2]; [26]
  Plant response rating, Barnyardgrass: 90
[3]; [25]
  Plant response rating, Foxtail, Giant: 90
[3]; [26]
  Plant response rating, Foxtail, Giant: 100
[4]; [25]
  Plant response rating, Pigweed: 60
[4]; [26]
  Plant response rating, Pigweed: 60
[5]; [25]
  Plant response rating, Ragweed: 20
[5]; [26]
  Plant response rating, Ragweed: 80
[6]; [25]
  Plant response rating, Ryegrass, Italian: 20
[6]; [26]
  Plant response rating, Ryegrass, Italian: 80
[7]; [27]
  Plant response rating, Galium: 50
[7]; [28]
  Plant response rating, Galium: 60
[8]; [27]
  Plant response rating, Kochia: 60
[8]; [28]
  Plant response rating, Kochia: 70
[9]; [27]
  Plant response rating, Barnyardgrass: 90
[9]; [28]
  Plant response rating, Barnyardgrass: 90
[10]; [27]
  Plant response rating, Blackgrass: 50
[10]; [28]
  Plant response rating, Blackgrass: 60
[11]; [27]
  Plant response rating, Corn: 50
[11]; [28]
  Plant response rating, Corn: 90
[12]; [27]
  Plant response rating, Foxtail, Giant: 90
[12]; [28]
  Plant response rating, Foxtail, Giant: 90
[13]; [27]
  Plant response rating, Pigweed: 20
[13]; [28]
  Plant response rating, Pigweed: 20
[14]; [27]
  Plant response rating, Ragweed: 10
[14]; [28]
  Plant response rating, Ragweed: 20
[15]; [27]
  Plant response rating, Ryegrass, Italian: 30
[15]; [28]
  Plant response rating, Ryegrass, Italian: 70
[16]; [27]
  Plant response rating, Wheat: 50
[16]; [28]
  Plant response rating, Wheat: 70
[17]
  Plant response rating, Barnyardgrass: 85
[18]
  Plant response rating, Ducksalad: 100
[19]
  Plant response rating, Rice: 0
[20]
  Plant response rating, Sedge, Umbrella: 0
[21]
  Plant response rating, Barnyardgrass: 0
[21]; 62 g ai/ha
  Plant response rating (scale of 0 to 100), Barnyardgrass: 65
[21]; 125 g ai/ha
  Plant response rating (scale of 0 to 100), Barnyardgrass: 70
[21]; 250 g ai/ha
  Plant response rating (scale of 0 to 100), Barnyardgrass: 70
[22]
  Plant response rating, Ducksalad: 45
[22]; 62 g ai/ha
  Plant response rating (scale of 0 to 100), Ducksalad: 70
[22]; 125 g ai/ha
  Plant response rating (scale of 0 to 100), Ducksalad: 85
[22]; 250 g ai/ha
  Plant response rating (scale of 0 to 100), Ducksalad: 100
[23]
  Plant response rating, Rice: 0
[23]; 62 g ai/ha
  Plant response rating (scale of 0 to 100), Rice: 0
[23]; 125 g ai/ha
  Plant response rating (scale of 0 to 100), Rice: 0
[23]; 250 g ai/ha
  Plant response rating (scale of 0 to 100), Rice: 0
[24]
  Plant response rating, Sedge, Umbrella: 0
[24]; 62 g ai/ha
  Plant response rating (scale of 0 to 100), Sedge, Umbrella: 0
[24]; 125 g ai/ha
  Plant response rating (scale of 0 to 100), Sedge, Umbrella: 0
[24]; 250 g ai/ha
  Plant response rating (scale of 0 to 100), Sedge, Umbrella: 0
